Measured values taken from patent US20090163475A1, “CRYSTALLINE FORM OF BENZAZEPINIUM MALEATE DERIVATIVE” (priority 2005, published 2009).

Tests used:
dopamine D2 receptor = dopamine D2 receptor (Homo sapiens, UniProt P14416); test: affinity for dopamine D2 receptors; assay type: binding
[1] = molecular target: T1, serotonin 5-HT2C receptor (Homo sapiens, UniProt P28335); test: antagonist affinity for serotonin 5-HT2C receptor; assay type: binding
T1 sequence (P28335 33-458): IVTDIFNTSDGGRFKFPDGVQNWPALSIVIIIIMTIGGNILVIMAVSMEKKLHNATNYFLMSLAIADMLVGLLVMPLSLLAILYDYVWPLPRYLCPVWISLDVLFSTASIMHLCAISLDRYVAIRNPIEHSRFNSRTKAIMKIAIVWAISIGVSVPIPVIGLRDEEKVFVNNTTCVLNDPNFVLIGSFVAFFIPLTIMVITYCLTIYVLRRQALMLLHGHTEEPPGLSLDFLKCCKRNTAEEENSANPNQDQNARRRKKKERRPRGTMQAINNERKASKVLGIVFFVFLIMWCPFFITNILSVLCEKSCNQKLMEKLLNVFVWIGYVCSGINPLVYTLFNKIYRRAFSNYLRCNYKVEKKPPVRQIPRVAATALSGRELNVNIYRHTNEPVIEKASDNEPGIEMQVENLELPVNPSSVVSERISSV

dopamine D3 receptor = dopamine D3 receptor (Homo sapiens, UniProt P35462); test: affinity for dopamine D3 receptors; assay type: binding
serotonin 5-HT6 receptor = serotonin 5-HT6 receptor (Homo sapiens, UniProt P50406); test: antagonist affinity for serotonin 5-HT6 receptor; assay type: binding
[2] = solid-state stability with respect to hygroscopicity / humidity; assay type: physicochemical

Sequence of dopamine D3 receptor (P35462 whole entry, species assumed): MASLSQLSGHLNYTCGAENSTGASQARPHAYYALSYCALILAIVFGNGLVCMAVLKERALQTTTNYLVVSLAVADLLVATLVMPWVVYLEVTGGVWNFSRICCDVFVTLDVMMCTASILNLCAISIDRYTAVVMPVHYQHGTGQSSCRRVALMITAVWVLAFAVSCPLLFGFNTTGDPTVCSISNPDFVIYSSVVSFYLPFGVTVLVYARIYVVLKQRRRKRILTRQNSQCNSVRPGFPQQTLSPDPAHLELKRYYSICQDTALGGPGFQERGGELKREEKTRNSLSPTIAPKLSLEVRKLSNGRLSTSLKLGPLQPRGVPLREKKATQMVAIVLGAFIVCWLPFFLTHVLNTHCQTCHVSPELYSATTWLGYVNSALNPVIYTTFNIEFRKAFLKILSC
Sequence of dopamine D2 receptor (P14416 whole entry): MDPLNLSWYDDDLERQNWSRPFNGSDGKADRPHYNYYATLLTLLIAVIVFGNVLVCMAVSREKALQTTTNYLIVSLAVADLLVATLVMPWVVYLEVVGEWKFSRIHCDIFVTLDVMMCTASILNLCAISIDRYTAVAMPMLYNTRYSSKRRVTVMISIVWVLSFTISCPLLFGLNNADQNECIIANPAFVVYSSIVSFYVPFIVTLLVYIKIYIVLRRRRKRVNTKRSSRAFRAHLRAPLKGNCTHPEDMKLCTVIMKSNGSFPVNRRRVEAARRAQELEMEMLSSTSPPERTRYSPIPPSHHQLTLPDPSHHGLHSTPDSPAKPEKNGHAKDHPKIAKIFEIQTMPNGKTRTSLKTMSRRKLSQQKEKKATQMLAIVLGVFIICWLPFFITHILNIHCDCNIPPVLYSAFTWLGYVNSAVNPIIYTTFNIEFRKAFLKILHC
Sequence of serotonin 5-HT6 receptor (P50406 whole entry): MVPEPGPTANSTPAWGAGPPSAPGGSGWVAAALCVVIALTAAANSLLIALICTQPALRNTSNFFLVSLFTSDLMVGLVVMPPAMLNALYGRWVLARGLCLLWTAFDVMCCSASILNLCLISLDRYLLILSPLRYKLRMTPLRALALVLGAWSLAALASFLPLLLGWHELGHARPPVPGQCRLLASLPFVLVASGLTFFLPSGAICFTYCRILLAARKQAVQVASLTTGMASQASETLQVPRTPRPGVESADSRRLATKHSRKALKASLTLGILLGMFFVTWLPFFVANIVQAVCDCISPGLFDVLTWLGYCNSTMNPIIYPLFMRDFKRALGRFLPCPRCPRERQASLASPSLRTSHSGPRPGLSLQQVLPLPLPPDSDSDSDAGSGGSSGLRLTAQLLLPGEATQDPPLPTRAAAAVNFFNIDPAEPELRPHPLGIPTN

| Compound | affinity for dopamine D2 receptor (dopamine D2 receptor) | antagonist affinity for serotonin 5-HT2C receptor [1] | affinity for dopamine D3 receptor (dopamine D3 receptor) | affinity for dopamine D3 relative to D2 receptors (dopamine D3 receptor; D3 versus D2) | antagonist affinity for serotonin 5-HT6 receptor (serotonin 5-HT6 receptor) | stability with respect to hygroscopicity and loss of water [2] | changes when exposed to very high humidity ([2]; very high humidity) |
| --- | --- | --- | --- | --- | --- | --- | --- |
| COc1cc2c(cc1S(=O)(=O)c1ccc(OCc3ccc(Cl)cc3)cc1)CCN(C)CC2.O=C(O)/C=C\C(=O)O [Form 2 salt, 7-[4-(4-Chlorobenzyloxy)benzenesulfonyl]-8-methoxy-3-methyl-2,3,4,5-tetrahydro-1H-3-benzazepinium maleate] | exhibit affinity | antagonist affinity | exhibit affinity | greater affinity for dopamine D3 than for D2 receptors | antagonist affinity | – | – |
| COc1cc2c(cc1S(=O)(=O)c1ccc(OCc3ccc(Cl)cc3)cc1)CCN(C)CC2.O=C(O)/C=C\C(=O)O [Form 2 maleate anhydrate, 7-[4-(4-Chlorobenzyloxy)benzenesulfonyl]-8-methoxy-3-methyl-2,3,4,5-tetrahydro-1H-3-benzazepinium Maleate] | – | – | – | – | – | particular stability | reversible changes |
